Experimental data published in paper PMC9447987, “Long-term memory CD8^+ T cells specific for SARS-CoV-2 in individuals who received the BNT162b2 mRNA vaccine” (Nature Communications, 2022).

Legend:
[1] = test system: HLA-A*24:02-restricted CD8+ T cells; type: cell-based, human; conditions: for number of S-QI9-specific T cell populations that effectively recognized the peptide / number of individuals whose S-QI9-specific T cells moderately recognized the peptide / number of individuals whose S-QI9-specific T cells uniformly recognized variant peptide and S-QI9 / number of individuals whose S-QI9-specific bulk T cells exhibited no or very weak recognition: 13 HLA-A*24:02+ individuals, C1R-A2402 pre-pulsed with 1 nM peptide
[2] = test system: HLA-A*24:02-peptide complexes; experiment: Peptide–MHC Complex Dissociation Assay using RMA-S-A2402 cells; type: binding, human; conditions: for % Mean Fluoresence: Fig.7d; for stability of the HLA-A*24:02-peptide complex (in words): RMA-S-A2402 cells, 10 μM peptide, 0, 1, 2 and 4 h
HLA-A*24:02 = HLA-A*24:02 (Homo sapiens, UniProt P04439, D101N/D140Y/D185E/E176V/E190D/F33S/G103R/G107R/I119L/I121M/I306V/K335N/L105A/L180Q/L300P/N151K/N90K/Q86E/Q94H/R106L/R138H/R89G/T104I/T345S/V100E/W191G/Y123F); experiment: HLA stabilization assay using RMA-S-A2402 cells; type: binding; conditions: for MFI, HLA-A2402 (APC), representative staining: RMA-S-A2402 cells, Suppl. Fig. 3d (for Fig. 7c), peptide(-) 11.3, 26 °C (Maximum) 24.0; for affinity for HLA-A*24:02, times weaker than that of S-QI9: approximately, peptide 0.03 to 10 μM
[3] = post-incubation 0 hour, replicate 1
[4] = post-incubation 0 hour, replicate 2
[5] = post-incubation 0 hour, replicate 3
[6] = post-incubation 1 hour, replicate 1
[7] = post-incubation 1 hour, replicate 2
[8] = post-incubation 1 hour, replicate 3
[9] = post-incubation 2 hour, replicate 1
[10] = post-incubation 2 hour, replicate 2
[11] = post-incubation 2 hour, replicate 3
[12] = post-incubation 4 hour, replicate 1
[13] = post-incubation 4 hour, replicate 2
[14] = post-incubation 4 hour, replicate 3

Sequence	sensitivity of S-QI9-specific T cells for the peptide compared with the SARS-CoV-2 S-QI9 epitope (in words) [1]	number of S-QI9-specific T cell populations that effectively recognized the peptide [1]	% Mean Fluoresence [2, 3] [%]	% Mean Fluoresence [2, 4] [%]	% Mean Fluoresence [2, 5] [%]	% Mean Fluoresence [2, 6] [%]	% Mean Fluoresence [2, 7] [%]	% Mean Fluoresence [2, 8] [%]	% Mean Fluoresence [2, 9] [%]	% Mean Fluoresence [2, 10] [%]	% Mean Fluoresence [2, 11] [%]	% Mean Fluoresence [2, 12] [%]	% Mean Fluoresence [2, 13] [%]	% Mean Fluoresence [2, 14] [%]	stability of the HLA-A*24:02-peptide complex (in words) [2]	MFI, HLA-A2402 (APC), representative staining (HLA-A*24:02)	affinity for HLA-A*24:02, times weaker than that of S-QI9 (HLA-A*24:02)	number of individuals whose S-QI9-specific T cells moderately recognized the peptide [1]	number of individuals whose S-QI9-specific T cells uniformly recognized variant peptide and S-QI9 [1]	number of individuals whose S-QI9-specific bulk T cells exhibited no or very weak recognition [1]	further results
MYVKWPWYV [HKU1]	higher sensitivity	13	100	100	100	69.2	72.5	68.4	38.6	43	37.4	12.8	14	10	weaker than that of the HLA-A*24:02-S-QI9 peptide complex	49.8	10–30 times				
NYIKWPWWV [NL63]	much lower sensitivity		100	100	100	18.2	44	7.4	-22.6	35.4	-0.6	18.3	-7.8	2	substantially weaker	16.2		7	2	4	affinity for HLA-A*24:02 (in words) (HLA-A*24:02): substantially weaker
TYIKWPWWV [229E]	much lower sensitivity		100	100	100	44.6	48.7	47.1	19.2	17	16.5	-1.1	-0.2	-1.9	weaker than that of the HLA-A*24:02-HKU1 or HLA-A*24:02-OC43 peptide complexes	41.6		7	2	4	
YYVKWPWYV [OC43]	higher sensitivity	13	100	100	100	70.4	82.2	77.7	54.3	54.5	58.1	20.6	25.6	22	identical to that of the HLA-A*24:02-S-QI9 peptide complex	45.9	10–30 times				
